# Test system: 138582-337-R-J1-PDC complex spheroid viability
# Experiment: Anticancer human tumor 138582-337-R-J1-PDC patient-derived Merkel cell tumor cell line growth inhibition
# Settings: for IC50: curve of first compound; for viability, T/C: stronger effect = lower value
# In short: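 Complex spheroids of tumor cells with HUVEC and human MSCs, exposed to iadademstat combined with other agents. Each agent tested in half-log steps from near clinical Cmax (else 10 microM top), DMSO ≤0.25%.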
# [1] = second compound 0.1 µM, first compound 0.0316 µM
# [2] = second compound 0.1 µM, first compound 0.1 µM
# [3] = second compound 0.316 µM, first compound 0.0316 µM
# [4] = second compound 0.316 µM, first compound 0.1 µM
# [5] = second compound 1 µM, first compound 0.0316 µM
# [6] = second compound 1 µM, first compound 0.1 µM
# [7] = second compound 3.16 µM, first compound 0.0316 µM
# [8] = second compound 3.16 µM, first compound 0.1 µM
# [9] = second compound 10 µM, first compound 0.0316 µM
# [10] = second compound 10 µM, first compound 0.1 µM
# [11] = second compound 0.1 µM, first compound 0.000949 µM
# [12] = second compound 0.1 µM, first compound 0.003 µM
# [13] = second compound 0.1 µM, first compound 0.00949 µM
# [14] = second compound 0.1 µM, first compound 0.03 µM
# [15] = second compound 0.1 µM, first compound 0.0949 µM
# [16] = second compound 0.1 µM, first compound 0.3 µM
# [17] = second compound 0.316 µM, first compound 0.000949 µM
# [18] = second compound 0.316 µM, first compound 0.003 µM
# [19] = second compound 0.316 µM, first compound 0.00949 µM
# [20] = second compound 0.316 µM, first compound 0.03 µM
# [21] = second compound 0.316 µM, first compound 0.0949 µM
# [22] = second compound 0.316 µM, first compound 0.3 µM
# [23] = second compound 1 µM, first compound 0.000949 µM
# [24] = second compound 1 µM, first compound 0.003 µM
# [25] = second compound 1 µM, first compound 0.00949 µM
# [26] = second compound 1 µM, first compound 0.03 µM
# [27] = second compound 1 µM, first compound 0.0949 µM
# [28] = second compound 1 µM, first compound 0.3 µM
# [29] = second compound 3.16 µM, first compound 0.000949 µM
# [30] = second compound 3.16 µM, first compound 0.003 µM
# [31] = second compound 3.16 µM, first compound 0.00949 µM
# [32] = second compound 3.16 µM, first compound 0.03 µM
# [33] = second compound 3.16 µM, first compound 0.0949 µM
# [34] = second compound 3.16 µM, first compound 0.3 µM
# [35] = second compound 10 µM, first compound 0.000949 µM
# [36] = second compound 10 µM, first compound 0.003 µM
# [37] = second compound 10 µM, first compound 0.00949 µM
# [38] = second compound 10 µM, first compound 0.03 µM
# [39] = second compound 10 µM, first compound 0.0949 µM
# [40] = second compound 10 µM, first compound 0.3 µM
# 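For viability, T/C in this document: 100% = DMSO vehicle control viability.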
compound,measurement,setting,value
CC[C@@]1(O)C(=O)OCc2c1cc1n(c2=O)Cc2cc3c(CN(C)C)c(O)ccc3nc2-1 + NC1CCC(NC2CC2c2ccccc2)CC1,IC50,second compound 0.1 µM,> 100 nM
same,IC50,second compound 0.316 µM,> 100 nM
same,IC50,second compound 1 µM,> 100 nM
same,IC50,second compound 3.16 µM,> 100 nM
same,IC50,second compound 10 µM,> 100 nM
same,"viability, T/C","second compound 0.1 µM, first compound 0.000316 µM",91%
same,"viability, T/C","second compound 0.1 µM, first compound 0.001 µM",99.7%
same,"viability, T/C","second compound 0.1 µM, first compound 0.00316 µM",105%
same,"viability, T/C","second compound 0.1 µM, first compound 0.01 µM",101%
same,"viability, T/C",[1],98.9%
same,"viability, T/C",[2],114%
same,"viability, T/C","second compound 0.316 µM, first compound 0.000316 µM",101%
same,"viability, T/C","second compound 0.316 µM, first compound 0.001 µM",96.8%
same,"viability, T/C","second compound 0.316 µM, first compound 0.00316 µM",120%
same,"viability, T/C","second compound 0.316 µM, first compound 0.01 µM",102%
same,"viability, T/C",[3],95.7%
same,"viability, T/C",[4],92.2%
same,"viability, T/C","second compound 1 µM, first compound 0.000316 µM",92%
same,"viability, T/C","second compound 1 µM, first compound 0.001 µM",101%
same,"viability, T/C","second compound 1 µM, first compound 0.00316 µM",115%
same,"viability, T/C","second compound 1 µM, first compound 0.01 µM",95.6%
same,"viability, T/C",[5],105%
same,"viability, T/C",[6],107%
same,"viability, T/C","second compound 3.16 µM, first compound 0.000316 µM",91.2%
same,"viability, T/C","second compound 3.16 µM, first compound 0.001 µM",96.6%
same,"viability, T/C","second compound 3.16 µM, first compound 0.00316 µM",104%
same,"viability, T/C","second compound 3.16 µM, first compound 0.01 µM",106%
same,"viability, T/C",[7],93.4%
same,"viability, T/C",[8],105%
same,"viability, T/C","second compound 10 µM, first compound 0.000316 µM",95.4%
same,"viability, T/C","second compound 10 µM, first compound 0.001 µM",91.6%
same,"viability, T/C","second compound 10 µM, first compound 0.00316 µM",86.8%
same,"viability, T/C","second compound 10 µM, first compound 0.01 µM",87.3%
same,"viability, T/C",[9],91.2%
same,"viability, T/C",[10],70.7%
CCc1c2c(nc3ccc(O)cc13)-c1cc3c(c(=O)n1C2)COC(=O)[C@]3(O)CC + NC1CCC(NC2CC2c2ccccc2)CC1,IC50,second compound 0.1 µM,12 nM
same,IC50,second compound 0.316 µM,11.5 nM
same,IC50,second compound 1 µM,10.1 nM
same,IC50,second compound 3.16 µM,12.1 nM
same,IC50,second compound 10 µM,10.6 nM
same,"viability, T/C",[11],91.7%
same,"viability, T/C",[12],87.9%
same,"viability, T/C",[13],57.5%
same,"viability, T/C",[14],18.6%
same,"viability, T/C",[15],0.42%
same,"viability, T/C",[16],0.49%
same,"viability, T/C",[17],85.1%
same,"viability, T/C",[18],84.6%
same,"viability, T/C",[19],55.1%
same,"viability, T/C",[20],18.2%
same,"viability, T/C",[21],0.45%
same,"viability, T/C",[22],0.5%
same,"viability, T/C",[23],80.9%
same,"viability, T/C",[24],78.7%
same,"viability, T/C",[25],51.5%
same,"viability, T/C",[26],14.5%
same,"viability, T/C",[27],0.38%
same,"viability, T/C",[28],0.35%
same,"viability, T/C",[29],78.3%
same,"viability, T/C",[30],75.1%
same,"viability, T/C",[31],58.9%
same,"viability, T/C",[32],17.6%
same,"viability, T/C",[33],0.39%
same,"viability, T/C",[34],0.54%
same,"viability, T/C",[35],68.8%
same,"viability, T/C",[36],68.9%
same,"viability, T/C",[37],54.2%
same,"viability, T/C",[38],9.4%
same,"viability, T/C",[39],0.34%
same,"viability, T/C",[40],0.52%
Nc1ccccc1NC(=O)c1ccc(CNC(=O)OCc2cccnc2)cc1 + NC1CCC(NC2CC2c2ccccc2)CC1,IC50,second compound 0.1 µM,1100 nM
same,IC50,second compound 0.316 µM,1100 nM
same,IC50,second compound 1 µM,1020 nM
same,IC50,second compound 3.16 µM,1010 nM
same,IC50,second compound 10 µM,138 nM
same,"viability, T/C",[13],103%
same,"viability, T/C",[14],81.7%
same,"viability, T/C",[15],83.9%
same,"viability, T/C",[16],101%
same,"viability, T/C","second compound 0.1 µM, first compound 0.949 µM",57.1%
same,"viability, T/C","second compound 0.1 µM, first compound 3 µM",1.81%
same,"viability, T/C",[19],88.8%
same,"viability, T/C",[20],76.8%
same,"viability, T/C",[21],79.5%
same,"viability, T/C",[22],86.1%
same,"viability, T/C","second compound 0.316 µM, first compound 0.949 µM",57%
same,"viability, T/C","second compound 0.316 µM, first compound 3 µM",1.94%
same,"viability, T/C",[25],96.1%
same,"viability, T/C",[26],80.2%
same,"viability, T/C",[27],77.3%
same,"viability, T/C",[28],92.5%
same,"viability, T/C","second compound 1 µM, first compound 0.949 µM",53.5%
same,"viability, T/C","second compound 1 µM, first compound 3 µM",0.81%
same,"viability, T/C",[31],90.5%
same,"viability, T/C",[32],82.3%
same,"viability, T/C",[33],74.5%
same,"viability, T/C",[34],76.4%
same,"viability, T/C","second compound 3.16 µM, first compound 0.949 µM",53.5%
same,"viability, T/C","second compound 3.16 µM, first compound 3 µM",0.82%
same,"viability, T/C",[37],74.2%
same,"viability, T/C",[38],57.8%
same,"viability, T/C",[39],62.2%
same,"viability, T/C",[40],35.4%
same,"viability, T/C","second compound 10 µM, first compound 0.949 µM",17.7%
same,"viability, T/C","second compound 10 µM, first compound 3 µM",0.52%
Nc1ccn(C2OC(CO)C(O)C2(F)F)c(=O)n1 (stereo not given) + NC1CCC(NC2CC2c2ccccc2)CC1,IC50,second compound 0.1 µM,> 300 nM
same,IC50,second compound 0.316 µM,> 300 nM
same,IC50,second compound 1 µM,> 300 nM
same,IC50,second compound 3.16 µM,> 300 nM
same,IC50,second compound 10 µM,> 300 nM
same,"viability, T/C",[11],96%
same,"viability, T/C",[12],94.2%
same,"viability, T/C",[13],94.2%
same,"viability, T/C",[14],95.3%
same,"viability, T/C",[15],94.7%
same,"viability, T/C",[16],105%
same,"viability, T/C",[17],89.9%
same,"viability, T/C",[18],92%
same,"viability, T/C",[19],93.6%
same,"viability, T/C",[20],85.8%
same,"viability, T/C",[21],84.2%
same,"viability, T/C",[22],106%
same,"viability, T/C",[23],98.3%
same,"viability, T/C",[24],93.7%
same,"viability, T/C",[25],95.4%
same,"viability, T/C",[26],80.9%
same,"viability, T/C",[27],108%
same,"viability, T/C",[28],85.6%
same,"viability, T/C",[29],79.8%
same,"viability, T/C",[30],81%
same,"viability, T/C",[31],91.8%
same,"viability, T/C",[32],87.9%
same,"viability, T/C",[33],85.8%
same,"viability, T/C",[34],88.7%
same,"viability, T/C",[35],88.7%
same,"viability, T/C",[36],71.1%
same,"viability, T/C",[37],87%
same,"viability, T/C",[38],79.4%
same,"viability, T/C",[39],76.4%
same,"viability, T/C",[40],92.6%
O=C(c1cc(Cc2n[nH]c(=O)c3ccccc23)ccc1F)N1CCN(C(=O)C2CC2)CC1 + NC1CCC(NC2CC2c2ccccc2)CC1,IC50,second compound 0.1 µM,> 10000 nM
same,IC50,second compound 0.316 µM,> 10000 nM
same,IC50,second compound 1 µM,> 10000 nM
same,IC50,second compound 3.16 µM,> 10000 nM
same,IC50,second compound 10 µM,> 10000 nM
same,"viability, T/C",[1],102%
same,"viability, T/C",[2],91.2%
same,"viability, T/C","second compound 0.1 µM, first compound 0.316 µM",86.7%
same,"viability, T/C","second compound 0.1 µM, first compound 1 µM",92.7%
same,"viability, T/C","second compound 0.1 µM, first compound 3.16 µM",84.3%
same,"viability, T/C","second compound 0.1 µM, first compound 10 µM",95.7%
same,"viability, T/C",[3],99.6%
same,"viability, T/C",[4],99.9%
same,"viability, T/C","second compound 0.316 µM, first compound 0.316 µM",88.1%
same,"viability, T/C","second compound 0.316 µM, first compound 1 µM",85.8%
same,"viability, T/C","second compound 0.316 µM, first compound 3.16 µM",80.1%
same,"viability, T/C","second compound 0.316 µM, first compound 10 µM",103%
same,"viability, T/C",[5],102%
same,"viability, T/C",[6],98.1%
same,"viability, T/C","second compound 1 µM, first compound 0.316 µM",92.5%
same,"viability, T/C","second compound 1 µM, first compound 1 µM",81.1%
same,"viability, T/C","second compound 1 µM, first compound 3.16 µM",79%
same,"viability, T/C","second compound 1 µM, first compound 10 µM",104%
same,"viability, T/C",[7],83.8%
same,"viability, T/C",[8],98.3%
same,"viability, T/C","second compound 3.16 µM, first compound 0.316 µM",113%
same,"viability, T/C","second compound 3.16 µM, first compound 1 µM",76.5%
same,"viability, T/C","second compound 3.16 µM, first compound 3.16 µM",86.7%
same,"viability, T/C","second compound 3.16 µM, first compound 10 µM",75.7%
same,"viability, T/C",[9],78.5%
same,"viability, T/C",[10],104%
same,"viability, T/C","second compound 10 µM, first compound 0.316 µM",77.7%
same,"viability, T/C","second compound 10 µM, first compound 1 µM",74.1%
same,"viability, T/C","second compound 10 µM, first compound 3.16 µM",79.6%
same,"viability, T/C","second compound 10 µM, first compound 10 µM",63.7%

# From PubChem BioAssay AID1918931 (Molecular Pharmacology Branch, DTP, NCI, 2023)
